Measurements published in PMC4833812, “Incorporation of tryptophan analogues into the lantibiotic nisin” (Amino Acids, 2016).

Legend:
[1] = Retention time in reverse phase chromatography (HPLC); format: physicochemical; details: reverse phase HPLC as described previously (Zhou et al. 2015); used by the paper to reflect changed hydrophobicity/polarity of the variants
Experimental: To obtain pure peptides for activity tests, the supernatant of 100 ml culture (filtered with 0.2 µm filter, Millipore) was first incubated with 5 ml supernatant of NisP (filtered) at 30 °C for 1 h to cut off the leader part and then purified with cation-ion exchange (HiTrap SP FF, GE healthcare) (van Heel et al. [2013]). The elutions were further loaded on a C18 column (Spherical C18, Sigma- Aldrich). The column was washed and eluted with different concentrations of solution B (solution A, milliQ with 0.1 % TFA; solution B, isopropanol: acetonitrile (2:1) with 0.1 % TFA). The elutions which were active against L. lactis were freeze-dried and further purified with HPLC as described previously (Zhou et al. [2015]). The fractions containing the peaks in the HPLC chromatogram were analysed by activity tests and MALDI-TOF (van Heel et al. [2013]). The peak which was active and contained the pure peptide with right mass was freeze-dried and quantified with HPLC as described previously (Zhou et al. [2015]).
Nisin is a positively charged and hydrophobic molecule. […] This difference was reflected by the elution time of the peptides in cation-ion exchange and reverse phase chromatography (HPLC). The variants with 5HW were eluted about half column volume earlier than other variants during cation-ion exchange (data not shown).

L. lactis MG1363 = assay: MIC test against indicator strain L. lactis MG1363; format: cell-based, Lactococcus lactis; details: for Change of antimicrobial activity, in words: I1 variants compared to I1W, I4 variant compared to nisin
Experimental: The indicator strain L. lactis MG1363 was first streaked on a GM17 plate and cultured overnight. Before testing the MIC, three to five colonies were picked and cultured with GM17 medium until OD600 reached 0.5. The culture was diluted 500 times with GM17 and mixed with the same volume of peptides dissolved in GM17. The MIC value test was performed according to Wiegand et al. ([2008]).

Micrococcus flavus = details: ref Kuipers et al. 1995; Demel et al. 1996; Van Kraaij et al. 1997; Breukink et al. 1998; cited from earlier work
Text: (§1) The first two rings of nisin can bind to lipid II which is essential for cell wall synthesis. The C-terminus of nisin can insert into the membrane enabling pore formation (Breukink and de Kruijff [2006]). Mutagenesis of nisin has been conducted extensively and several residues have been mutated to tryptophan, e.g. I1W, M17W and V32W, which all reduce nisin activity but not dramatically, against Micrococcus flavus by two to three times and against Streptococcus thermophilus by three to eigh ... || The first two rings of nisin can bind to lipid II by forming a pyrophosphate cage (Hsu et al. [2004]).

[2] = test system: Streptococcus thermophilus; details: ref Kuipers et al. 1995; Demel et al. 1996; Van Kraaij et al. 1997; Breukink et al. 1998; cited from earlier work
Text: as §1

SMILES	Retention time of HPLC [1] [min]	Change of antimicrobial activity, in words (L. lactis MG1363; listed as 5FW analogue of I1W)	Change of antimicrobial activity, in words (L. lactis MG1363; listed as 5FW labelled I1W)	Reduction of antimicrobial activity compared to nisin (L. lactis MG1363; from MIC values)	Reduction of antimicrobial activity compared to I1W (L. lactis MG1363; from MIC values)	Reduction of nisin activity against Micrococcus flavus (Micrococcus flavus)	Reduction of nisin activity against Streptococcus thermophilus [2]
C=C(NC(=O)[C@@H](NC(=O)[C@H](Cc1c[nH]cn1)NC(=O)[C@@H](NC(=O)[C@H](CO)NC(=O)[C@@H]1CS[C@@H](C)[C@H]2NC(=O)[C@H](C)NC(=O)[C@H](NC(=O)[C@H](CCCCN)NC(=O)[C@H](CCSC)NC(=O)[C@H](CC(N)=O)NC(=O)[C@@H]3CS[C@@H](C)[C@@H](NC(=O)[C@H](CCCCN)NC(=O)[C@@H]4CS[C@@H](C)[C@@H](NC(=O)[C@@H]5CSC[C@@H](NC(=O)/C(=C/C)NC(=O)[C@@H](N)Cc6c[nH]c7ccc(F)cc67)C(=O)N[C@@H]([C@@H](C)CC)C(=O)NC(=C)C(=O)N[C@@H](CC(C)C)C(=O)N5)C(=O)N5CCC[C@H]5C(=O)NCC(=O)N4)C(=O)NCC(=O)N[C@@H](C)C(=O)N[C@@H](CC(C)C)C(=O)N[C@@H](CCSC)C(=O)NCC(=O)N3)[C@H](C)SC[C@H](NC2=O)C(=O)N[C@@H](Cc2c[nH]cn2)C(=O)N1)[C@@H](C)CC)C(C)C)C(=O)N[C@@H](CCCCN)C(=O)O [I1-5FW]	38.9	did not change the activity	the same activity	two	–	–	–
C=C(NC(=O)[C@@H](NC(=O)[C@H](Cc1c[nH]cn1)NC(=O)[C@@H](NC(=O)[C@H](CO)NC(=O)[C@@H]1CS[C@@H](C)[C@H]2NC(=O)[C@H](C)NC(=O)[C@H](NC(=O)[C@H](CCCCN)NC(=O)[C@H](CCSC)NC(=O)[C@H](CC(N)=O)NC(=O)[C@@H]3CS[C@@H](C)[C@@H](NC(=O)[C@H](CCCCN)NC(=O)[C@@H]4CS[C@@H](C)[C@@H](NC(=O)[C@@H]5CSC[C@@H](NC(=O)/C(=C/C)NC(=O)[C@@H](N)Cc6c[nH]c7ccc(O)cc67)C(=O)N[C@@H]([C@@H](C)CC)C(=O)NC(=C)C(=O)N[C@@H](CC(C)C)C(=O)N5)C(=O)N5CCC[C@H]5C(=O)NCC(=O)N4)C(=O)NCC(=O)N[C@@H](C)C(=O)N[C@@H](CC(C)C)C(=O)N[C@@H](CCSC)C(=O)NCC(=O)N3)[C@H](C)SC[C@H](NC2=O)C(=O)N[C@@H](Cc2c[nH]cn2)C(=O)N1)[C@@H](C)CC)C(C)C)C(=O)N[C@@H](CCCCN)C(=O)O [I1-5HW]	35.0	–	–	four	two	–	–
C=C(NC(=O)[C@@H](NC(=O)[C@H](Cc1c[nH]cn1)NC(=O)[C@@H](NC(=O)[C@H](CO)NC(=O)[C@@H]1CS[C@@H](C)[C@H]2NC(=O)[C@H](C)NC(=O)[C@H](NC(=O)[C@H](CCCCN)NC(=O)[C@H](CCSC)NC(=O)[C@H](CC(N)=O)NC(=O)[C@@H]3CS[C@@H](C)[C@@H](NC(=O)[C@H](CCCCN)NC(=O)[C@@H]4CS[C@@H](C)[C@@H](NC(=O)[C@@H]5CSC[C@@H](NC(=O)/C(=C/C)NC(=O)[C@@H](N)Cc6c[nH]c7ccccc67)C(=O)N[C@@H]([C@@H](C)CC)C(=O)NC(=C)C(=O)N[C@@H](CC(C)C)C(=O)N5)C(=O)N5CCC[C@H]5C(=O)NCC(=O)N4)C(=O)NCC(=O)N[C@@H](C)C(=O)N[C@@H](CC(C)C)C(=O)N[C@@H](CCSC)C(=O)NCC(=O)N3)[C@H](C)SC[C@H](NC2=O)C(=O)N[C@@H](Cc2c[nH]cn2)C(=O)N1)[C@@H](C)CC)C(C)C)C(=O)N[C@@H](CCCCN)C(=O)O [I1-W]	38.0	–	–	two	–	two to three	three to eight
C=C(NC(=O)[C@@H](NC(=O)[C@H](Cc1c[nH]cn1)NC(=O)[C@@H](NC(=O)[C@H](CO)NC(=O)[C@@H]1CS[C@@H](C)[C@H]2NC(=O)[C@H](C)NC(=O)[C@H](NC(=O)[C@H](CCCCN)NC(=O)[C@H](CCSC)NC(=O)[C@H](CC(N)=O)NC(=O)[C@@H]3CS[C@@H](C)[C@@H](NC(=O)[C@H](CCCCN)NC(=O)[C@@H]4CS[C@@H](C)[C@@H](NC(=O)[C@@H]5CSC[C@@H](NC(=O)/C(=C/C)NC(=O)[C@@H](N)[C@@H](C)CC)C(=O)N[C@@H]([C@@H](C)CC)C(=O)NC(=C)C(=O)N[C@@H](CC(C)C)C(=O)N5)C(=O)N5CCC[C@H]5C(=O)NCC(=O)N4)C(=O)NCC(=O)N[C@@H](C)C(=O)N[C@@H](CC(C)C)C(=O)N[C@@H](Cc4c[nH]c5ccc(O)cc45)C(=O)NCC(=O)N3)[C@H](C)SC[C@H](NC2=O)C(=O)N[C@@H](Cc2c[nH]cn2)C(=O)N1)[C@@H](C)CC)C(C)C)C(=O)N[C@@H](CCCCN)C(=O)O [M17-5HW]	37.2	–	–	32 times	–	–	–
C=C(NC(=O)[C@@H](NC(=O)[C@H](Cc1c[nH]cn1)NC(=O)[C@@H](NC(=O)[C@H](CO)NC(=O)[C@@H]1CS[C@@H](C)[C@H]2NC(=O)[C@H](C)NC(=O)[C@H](NC(=O)[C@H](CCCCN)NC(=O)[C@H](CCSC)NC(=O)[C@H](CC(N)=O)NC(=O)[C@@H]3CS[C@@H](C)[C@@H](NC(=O)[C@H](CCCCN)NC(=O)[C@@H]4CS[C@@H](C)[C@@H](NC(=O)[C@@H]5CSC[C@@H](NC(=O)/C(=C/C)NC(=O)[C@@H](N)[C@@H](C)CC)C(=O)N[C@@H]([C@@H](C)CC)C(=O)NC(=C)C(=O)N[C@@H](CC(C)C)C(=O)N5)C(=O)N5CCC[C@H]5C(=O)NCC(=O)N4)C(=O)NCC(=O)N[C@@H](C)C(=O)N[C@@H](CC(C)C)C(=O)N[C@@H](Cc4c[nH]c5ccccc45)C(=O)NCC(=O)N3)[C@H](C)SC[C@H](NC2=O)C(=O)N[C@@H](Cc2c[nH]cn2)C(=O)N1)[C@@H](C)CC)C(C)C)C(=O)N[C@@H](CCCCN)C(=O)O [M17-W]	38.5	–	–	32 times	–	two to three	three to eight
